# Laboratory results: patent publication US8802866B2, “Pyridinylimidazolone derivatives for the inhibition of PI3 kinases” (Merck Patent GmbH, priority 2009, dated 2014)
# Read-outs that look alike come from different tables or passages of the source.
# Assays:
# [1] = molecular target: PI3Kalpha (Homo sapiens, UniProt P42336); assay: Biochemical PI3Kalpha assay (neomycin SPA, lipid phosphorylation); conditions: human recombinant GST-PI3K
# Summary of the method: (§1)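 Recombinant PI3K incubated with lipid substrate and radioactive ATP for 120 min at room temperature with gentle stirring, then stopped with neomycin-coated PVT-SPA beads, ATP 60 mM and EDTA 6.2 mM in PBS. After 60 min bead binding and centrifugation, radioactive Ptdlns(3)P counted by scintillation.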
# [2] = molecular target: PI3Kbeta (Homo sapiens, UniProt P42338); assay: Biochemical PI3Kbeta assay (neomycin SPA, lipid phosphorylation); conditions: human recombinant GST-PI3K
# PI3Kbeta, sequence (P42338 whole entry): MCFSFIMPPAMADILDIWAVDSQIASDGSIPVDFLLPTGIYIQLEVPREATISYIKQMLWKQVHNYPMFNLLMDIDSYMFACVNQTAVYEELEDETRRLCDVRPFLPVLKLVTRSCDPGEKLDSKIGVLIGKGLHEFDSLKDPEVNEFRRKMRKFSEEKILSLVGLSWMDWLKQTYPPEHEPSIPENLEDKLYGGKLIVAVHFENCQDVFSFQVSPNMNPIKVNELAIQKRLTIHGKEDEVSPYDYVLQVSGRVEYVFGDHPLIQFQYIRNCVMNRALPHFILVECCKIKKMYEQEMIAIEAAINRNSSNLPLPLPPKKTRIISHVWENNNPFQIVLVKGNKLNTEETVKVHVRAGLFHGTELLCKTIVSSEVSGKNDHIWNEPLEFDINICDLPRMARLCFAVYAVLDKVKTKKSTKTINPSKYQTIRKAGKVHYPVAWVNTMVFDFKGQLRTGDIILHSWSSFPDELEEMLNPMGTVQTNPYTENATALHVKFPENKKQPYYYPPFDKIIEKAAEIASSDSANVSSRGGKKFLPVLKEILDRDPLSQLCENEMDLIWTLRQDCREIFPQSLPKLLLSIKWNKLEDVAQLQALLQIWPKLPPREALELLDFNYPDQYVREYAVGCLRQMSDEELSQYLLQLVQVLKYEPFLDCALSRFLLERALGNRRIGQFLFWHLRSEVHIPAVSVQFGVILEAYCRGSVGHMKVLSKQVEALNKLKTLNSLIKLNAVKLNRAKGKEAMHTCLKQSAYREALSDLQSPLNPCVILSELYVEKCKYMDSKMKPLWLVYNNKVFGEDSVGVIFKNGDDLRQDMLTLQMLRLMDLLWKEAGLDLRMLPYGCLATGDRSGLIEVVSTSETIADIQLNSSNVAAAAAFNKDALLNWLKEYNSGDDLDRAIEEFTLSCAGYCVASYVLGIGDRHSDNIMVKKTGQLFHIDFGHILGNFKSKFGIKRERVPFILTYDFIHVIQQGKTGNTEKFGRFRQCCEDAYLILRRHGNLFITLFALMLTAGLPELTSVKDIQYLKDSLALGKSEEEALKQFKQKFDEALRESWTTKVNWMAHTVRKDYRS
# PI3Kbeta, sequence (P27986 whole entry partner): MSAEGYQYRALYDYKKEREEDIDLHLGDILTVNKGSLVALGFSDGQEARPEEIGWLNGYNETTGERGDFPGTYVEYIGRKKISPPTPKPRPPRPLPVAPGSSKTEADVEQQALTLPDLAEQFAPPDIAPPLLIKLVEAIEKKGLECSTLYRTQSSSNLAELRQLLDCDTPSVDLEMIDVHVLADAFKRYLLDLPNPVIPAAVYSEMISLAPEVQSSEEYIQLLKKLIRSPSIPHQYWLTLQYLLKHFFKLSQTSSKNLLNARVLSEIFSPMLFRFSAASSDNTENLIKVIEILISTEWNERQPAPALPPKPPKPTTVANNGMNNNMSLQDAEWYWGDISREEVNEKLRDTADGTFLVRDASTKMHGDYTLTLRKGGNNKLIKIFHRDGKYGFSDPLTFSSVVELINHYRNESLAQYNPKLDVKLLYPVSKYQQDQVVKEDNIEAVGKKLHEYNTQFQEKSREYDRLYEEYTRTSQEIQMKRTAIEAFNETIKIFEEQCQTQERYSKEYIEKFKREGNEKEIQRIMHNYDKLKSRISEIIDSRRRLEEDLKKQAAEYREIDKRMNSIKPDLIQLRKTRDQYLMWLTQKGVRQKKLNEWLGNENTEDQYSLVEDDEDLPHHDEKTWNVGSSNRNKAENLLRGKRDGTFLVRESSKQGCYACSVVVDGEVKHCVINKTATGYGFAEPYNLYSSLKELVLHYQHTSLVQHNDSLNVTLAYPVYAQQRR
# Summary of the method: as §1
# [3] = tested on: PI3K-dependent phosphorylation of PKB at Serin 473 in PC3 cells; assay: Cellular PI3K assay (P-S473-PKB Luminex assay in PC3 cells); format: cell-based; conditions: Homo sapiens, PC-3, 0.5 h, read-out: IC50 (cell)
# Summary of the method: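 PC3 cells were exposed for 30 min under serum-free conditions to 7 concentrations of compound, then lysed. Lysates were captured overnight at 4°C on anti-total-PKB Luminex beads and detected with P-S473-PKB antibody plus PE-labelled secondary.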
# [4] = molecular target: recombinant PI3Kalpha (shortened form of the catalytic subunit) (Homo sapiens, UniProt P42336); assay: BIACORE PI3K binding assay (SPR); conditions: 25° C.
# recombinant PI3Kalpha (shortened form of the catalytic subunit), sequence (P42336 151-1068 limits assumed): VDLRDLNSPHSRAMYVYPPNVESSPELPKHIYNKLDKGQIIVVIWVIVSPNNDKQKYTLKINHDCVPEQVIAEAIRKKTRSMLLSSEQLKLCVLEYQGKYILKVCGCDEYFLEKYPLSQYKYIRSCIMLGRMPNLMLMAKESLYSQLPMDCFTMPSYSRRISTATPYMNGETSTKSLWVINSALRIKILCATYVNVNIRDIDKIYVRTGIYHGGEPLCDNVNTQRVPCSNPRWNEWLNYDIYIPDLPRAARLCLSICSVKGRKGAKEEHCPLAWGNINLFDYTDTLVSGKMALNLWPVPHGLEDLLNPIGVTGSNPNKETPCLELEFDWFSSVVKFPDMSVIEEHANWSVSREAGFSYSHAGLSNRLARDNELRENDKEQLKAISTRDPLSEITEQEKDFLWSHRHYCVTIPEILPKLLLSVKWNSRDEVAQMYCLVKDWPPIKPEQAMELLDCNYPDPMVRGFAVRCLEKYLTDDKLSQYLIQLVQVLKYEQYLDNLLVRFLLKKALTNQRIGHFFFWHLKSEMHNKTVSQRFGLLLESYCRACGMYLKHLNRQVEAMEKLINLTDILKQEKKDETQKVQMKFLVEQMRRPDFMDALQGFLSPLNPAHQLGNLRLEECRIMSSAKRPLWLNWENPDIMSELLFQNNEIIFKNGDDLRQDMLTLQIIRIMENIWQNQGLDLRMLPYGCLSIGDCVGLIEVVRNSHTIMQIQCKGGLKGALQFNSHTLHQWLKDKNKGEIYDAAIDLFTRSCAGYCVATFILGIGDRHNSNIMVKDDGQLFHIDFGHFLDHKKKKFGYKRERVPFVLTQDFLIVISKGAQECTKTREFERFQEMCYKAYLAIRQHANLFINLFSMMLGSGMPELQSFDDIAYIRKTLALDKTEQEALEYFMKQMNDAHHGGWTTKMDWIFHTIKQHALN
# Summary of the method: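 Contact time was 180 s and dissociation 240 s, in HEPES pH 7.40 buffer with 2% DMSO. Solvent-corrected, double-referenced data were fitted to a 1:1 model with mass transport.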
# [5] = molecular target: DNA-PK protein complex (Homo sapiens, UniProt P78527); assay: Biochemical DNA-PK assay (FlashPlate)
# Summary of the method: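 Streptavidin-coated FlashPlate radiometric kinase assay, stopped with 200 mM EDTA, then wells washed with 0.9% NaCl and bound radioactivity counted. Blank (non-specific reaction) defined with a proprietary kinase inhibitor at 10 μM.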
# [6] = molecular target: T1, mTOR (Homo sapiens, UniProt P42345); assay: Biochemical mTOR assay (Millipore mTOR assay kit)
# T1 construct: purchased Millipore 14-770
# T1 sequence (P42345 1362-2549 limits assumed): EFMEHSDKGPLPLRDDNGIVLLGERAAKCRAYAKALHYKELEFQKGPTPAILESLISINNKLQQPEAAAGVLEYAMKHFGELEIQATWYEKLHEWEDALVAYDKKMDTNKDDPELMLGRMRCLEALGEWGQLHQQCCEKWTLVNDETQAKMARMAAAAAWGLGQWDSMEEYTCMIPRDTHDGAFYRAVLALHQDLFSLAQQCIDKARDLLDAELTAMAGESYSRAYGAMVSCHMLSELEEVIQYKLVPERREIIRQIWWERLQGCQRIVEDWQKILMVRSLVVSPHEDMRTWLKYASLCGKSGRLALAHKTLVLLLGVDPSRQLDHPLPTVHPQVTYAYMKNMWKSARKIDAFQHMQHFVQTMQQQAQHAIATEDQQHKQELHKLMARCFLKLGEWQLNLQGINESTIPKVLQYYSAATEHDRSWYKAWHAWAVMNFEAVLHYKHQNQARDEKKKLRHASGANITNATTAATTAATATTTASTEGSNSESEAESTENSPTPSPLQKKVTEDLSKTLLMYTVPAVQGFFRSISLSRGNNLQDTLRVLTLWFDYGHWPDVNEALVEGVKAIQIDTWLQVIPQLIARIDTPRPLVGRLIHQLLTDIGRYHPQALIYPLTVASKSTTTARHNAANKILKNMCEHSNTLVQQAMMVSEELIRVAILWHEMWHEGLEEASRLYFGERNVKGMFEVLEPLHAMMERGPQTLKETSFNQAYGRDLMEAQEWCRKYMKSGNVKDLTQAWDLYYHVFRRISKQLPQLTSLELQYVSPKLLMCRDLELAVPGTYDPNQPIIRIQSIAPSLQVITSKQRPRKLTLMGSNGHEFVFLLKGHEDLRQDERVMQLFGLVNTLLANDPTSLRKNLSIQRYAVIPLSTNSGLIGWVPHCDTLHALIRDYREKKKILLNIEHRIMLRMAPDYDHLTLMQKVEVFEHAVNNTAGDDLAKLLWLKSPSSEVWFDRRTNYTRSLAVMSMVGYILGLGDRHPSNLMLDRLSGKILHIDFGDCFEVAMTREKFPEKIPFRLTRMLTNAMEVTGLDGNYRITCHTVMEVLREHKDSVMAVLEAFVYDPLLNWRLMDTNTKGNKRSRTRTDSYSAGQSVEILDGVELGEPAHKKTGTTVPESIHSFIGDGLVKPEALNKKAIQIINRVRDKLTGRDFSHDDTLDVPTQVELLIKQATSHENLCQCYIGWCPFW
# Description: The biochemical mTOR assay was carried out by the method described in the Millipore mTOR assay kit (catalogue number 14-770).
# [7] = PC3 cells, 30 min, serum-free, P-S473-PKB
# PI3Kalpha, sequence (P42336 whole entry): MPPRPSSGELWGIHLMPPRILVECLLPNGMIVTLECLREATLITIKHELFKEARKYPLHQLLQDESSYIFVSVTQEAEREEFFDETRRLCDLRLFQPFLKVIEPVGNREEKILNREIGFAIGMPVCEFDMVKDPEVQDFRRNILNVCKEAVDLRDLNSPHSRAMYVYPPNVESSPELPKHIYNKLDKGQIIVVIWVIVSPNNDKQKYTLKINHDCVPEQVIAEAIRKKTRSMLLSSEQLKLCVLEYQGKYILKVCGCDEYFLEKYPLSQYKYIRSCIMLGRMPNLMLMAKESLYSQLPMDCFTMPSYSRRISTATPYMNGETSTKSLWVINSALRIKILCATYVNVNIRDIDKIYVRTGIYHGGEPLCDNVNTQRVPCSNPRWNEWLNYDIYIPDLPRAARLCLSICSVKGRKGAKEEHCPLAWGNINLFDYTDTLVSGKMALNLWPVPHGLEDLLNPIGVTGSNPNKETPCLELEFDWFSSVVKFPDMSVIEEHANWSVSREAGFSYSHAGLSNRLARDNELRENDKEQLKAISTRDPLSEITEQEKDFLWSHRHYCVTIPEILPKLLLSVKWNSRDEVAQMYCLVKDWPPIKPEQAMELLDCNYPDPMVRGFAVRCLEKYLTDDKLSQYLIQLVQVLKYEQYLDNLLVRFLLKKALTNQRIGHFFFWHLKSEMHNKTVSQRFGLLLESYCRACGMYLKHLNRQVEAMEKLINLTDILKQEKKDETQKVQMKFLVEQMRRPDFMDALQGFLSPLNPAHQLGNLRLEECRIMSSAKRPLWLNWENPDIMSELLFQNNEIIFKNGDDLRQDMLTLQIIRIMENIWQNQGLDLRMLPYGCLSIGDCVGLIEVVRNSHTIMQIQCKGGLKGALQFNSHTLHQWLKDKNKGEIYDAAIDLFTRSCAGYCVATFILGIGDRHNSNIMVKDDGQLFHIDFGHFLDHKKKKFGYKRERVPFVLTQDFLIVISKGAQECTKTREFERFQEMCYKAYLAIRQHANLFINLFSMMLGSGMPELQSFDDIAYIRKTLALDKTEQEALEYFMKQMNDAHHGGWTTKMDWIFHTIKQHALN
# PI3Kalpha, sequence (P27986 whole entry partner): as the sequence (P27986 whole entry partner) above
SMILES,IC50 [1],IC50 [2],melting point,"IC50 [3, 7]",Kd [4],IC50 [5],IC50 [6],IC50 [3]
"O=c1[nH]cc(-c2cc(-c3cnc4ccccc4c3)ccn2)n1-c1ccc(N2CCNCC2)c(C(F)(F)F)c1 [Example A5, 1-(4-piperazin-1-yl-3-trifluoromethylphenyl)-5-(4-quinolin-3-ylpyridin-2-yl)-1,3-dihydroimidazol-2-one]",100 to 10000 nM,100 to 10000 nM,155 °C,100 to 10000 nM,100 to 10000 nM,100 to 10000 nM,,
"Cn1cc(-c2cc(-c3ccncc3)ccn2)n(-c2ccc(C(C)(C)C#N)cc2)c1=O [Example A11, 2-[4-(5-[4,4′]Bipyridinyl-2-yl-3-methyl-2-oxo-2,3-dihydroimidazol-1-yl)phenyl]-2-methylpropionitrile]",100 to 10000 nM,> 10000 nM,226 °C,> 10000 nM,,0.1 to 100 nM,,
"Cn1cc(-c2cc(-c3cnc4ccccc4c3)ccn2)n(-c2ccc(C(C)(C)CN)cc2)c1=O [Example A30, 3-[4-(2-Amino-1,1-dimethylethyl)phenyl]-1-methyl-4-(4-quinolin-3-ylpyridin-2-yl)-1,3-dihydroimidazol-2-one]",100 to 10000 nM,> 10000 nM,132 °C,> 10000 nM,,100 to 10000 nM,,
"Cn1cc(-c2cc(-c3cnc4c(c3)CCC(=O)N4)ccn2)n(-c2ccc(C(C)(C)C#N)cc2)c1=O [Example A45, 2-Methyl-2-(4-{3-methyl-2-oxo-5-[4-(7-oxo-5,6,7,8-tetrahydro-[1,8]naphthyridin-3-yl)pyridin-2-yl]-2,3-dihydroimidazol-1-yl}phenyl)propionitrile]",0.1 to 100 nM,100 to 10000 nM,284 °C,100 to 10000 nM,,0.1 to 100 nM,,
"Cn1cc(-c2cc(-c3ccc(N)cc3)ccn2)n(-c2ccc(N3CCNCC3)c(C(F)(F)F)c2)c1=O [Example A60, 4-[4-(4-Aminophenyl)pyridin-2-yl]-1-methyl-3-(4-piperazin-1-yl-3-trifluoromethyl-phenyl)-1,3-dihydroimidazol-2-one]",100 to 10000 nM,> 10000 nM,,100 to 10000 nM,100 to 10000 nM,0.1 to 100 nM,> 10000 nM,
"Cn1cc(-c2cc(-c3cnc4[nH]ncc4c3)ccn2)n(-c2cccc(C#N)c2)c1=O [Example A63, 3-{3-Methyl-2-oxo-5-[4-(1H-pyrazolo[3,4-b]pyridin-5-yl)pyridin-2-yl]-2,3-dihydro-imidazol-1-yl}benzonitrile]",0.1 to 100 nM,100 to 10000 nM,,100 to 10000 nM,0.1 to 100 nM,0.1 to 100 nM,0.1 to 100 nM,
"CC(=O)N1CCN(c2ccc(-n3c(-c4cc(-c5cnc6[nH]ccc6c5)ccn4)cn(C)c3=O)cc2C(F)(F)F)CC1 [Example A72, 3-[4-(4-Acetylpiperazin-1-yl)-3-trifluoromethylphenyl]-1-methyl-4-[4-(1H-pyrrolo[2,3-b]pyridin-5-yl)pyridin-2-yl]-1,3-dihydroimidazol-2-one]",100 to 10000 nM,100 to 10000 nM,,0.1 to 100 nM,0.1 to 100 nM,0.1 to 100 nM,100 to 10000 nM,
"COc1cccc(-n2c(-c3cc(-c4cnc5[nH]ccc5c4)ccn3)cn(C)c2=O)c1 [Example A73, 3-(3-Methoxyphenyl)-1-methyl-4-[4-(1H-pyrrolo[2,3-b]pyridin-5-yl)pyridin-2-yl]-1,3-dihydroimidazol-2-one]",100 to 10000 nM,100 to 10000 nM,,100 to 10000 nM,0.1 to 100 nM,0.1 to 100 nM,0.1 to 100 nM,
"Cc1cc2cc(-c3ccnc(-c4cn(C)c(=O)n4-c4ccc(C(C)(C)C#N)cc4)c3)cnc2[nH]1 [Example A85, 2-Methyl-2-(4-{3-methyl-5-[4-(2-methyl-1H-pyrrolo[2,3-b]pyridin-5-yl)pyridin-2-yl]-2-oxo-2,3-dihydroimidazol-1-yl}phenyl)propionitrile]",100 to 10000 nM,100 to 10000 nM,,,0.1 to 100 nM,0.1 to 100 nM,100 to 10000 nM,100 to 10000 nM

# More lines, main results first:
IC50 [1],IC50 [2],melting point,"IC50 [3, 7]",Kd [4],IC50 [5],IC50 [6],SMILES,IC50 [3]
100 to 10000 nM,100 to 10000 nM,,100 to 10000 nM,100 to 10000 nM,0.1 to 100 nM,100 to 10000 nM,"CN1CCN(c2ccc(-n3c(-c4cc(-c5cnc6[nH]c(C(C)(C)C)cc6c5)ccn4)cn(C)c3=O)cc2C(F)(F)F)CC1 [Example A86, 4-[4-(2-tert-Butyl-1H-pyrrolo[2,3-b]pyridin-5-yl)pyridin-2-yl]-1-methyl-3-[4-(4-methylpiperazin-1-yl)-3-trifluoromethylphenyl]-1,3-dihydroimidazol-2-one]",
100 to 10000 nM,100 to 10000 nM,,100 to 10000 nM,100 to 10000 nM,0.1 to 100 nM,100 to 10000 nM,"CN1CCN(c2ccc(-n3c(-c4cc(-c5cnc6[nH]c(C(F)(F)F)cc6c5)ccn4)cn(C)c3=O)cc2C(F)(F)F)CC1 [Example A87, 1-Methyl-3-[4-(4-methylpiperazin-1-yl)-3-trifluoromethylphenyl]-4-[4-(2-trifluoro-methyl-1H-pyrrolo[2,3-b]pyridin-5-yl)pyridin-2-yl]-1,3-dihydroimidazol-2-one]",
100 to 10000 nM,> 10000 nM,,> 10000 nM,100 to 10000 nM,0.1 to 100 nM,100 to 10000 nM,"Cn1cc(-c2cc(-c3ccc4ncncc4c3)ccn2)n(-c2ccc(C(C)(C)C#N)cc2)c1=O [Example A91, 2-Methyl-2-{4-[3-methyl-2-oxo-5-(4-quinazolin-6-ylpyridin-2-yl)-2,3-dihydro-imidazol-1-yl]phenyl}propionitrile]",
100 to 10000 nM,100 to 10000 nM,,> 10000 nM,100 to 10000 nM,0.1 to 100 nM,100 to 10000 nM,"Cn1cc(-c2cc(-c3cnc4[nH]c(C(C)(C)C)cc4c3)ccn2)n(-c2ccc(C(C)(C)C#N)cc2)c1=O [Example A92, 2-(4-{5-[4-(2-tert-Butyl-1H-pyrrolo[2,3-b]pyridin-5-yl)pyridin-2-yl]-3-methyl-2-oxo-2,3-dihydroimidazol-1-yl}phenyl)-2-methylpropionitrile]",
100 to 10000 nM,100 to 10000 nM,,100 to 10000 nM,0.1 to 100 nM,0.1 to 100 nM,100 to 10000 nM,"Cn1cc(-c2cc(-c3ccc(N)c(C(F)(F)F)c3)ccn2)n(-c2ccc(C(C)(C)C#N)cc2)c1=O [Example A93, 2-(4-{5-[4-(4-Amino-3-trifluoromethylphenyl)pyridin-2-yl]-3-methyl-2-oxo-2,3-dihydroimidazol-1-yl}phenyl)-2-methylpropionitrile]",
100 to 10000 nM,100 to 10000 nM,,100 to 10000 nM,100 to 10000 nM,0.1 to 100 nM,100 to 10000 nM,"Cn1cc(-c2cc(-c3cnc4[nH]ccc4c3)ccn2)n(-c2cc(F)cc(C#N)c2)c1=O [Example A96, 3-Fluoro-5-{3-methyl-2-oxo-5-[4-(1H-pyrrolo[2,3-b]pyridin-5-yl)pyridin-2-yl]-2,3-dihydroimidazol-1-yl}benzonitrile]",
,,268 °C,100 to 10000 nM,,100 to 10000 nM,,"Cn1cc(-c2cc(-c3cnc4[nH]cc(F)c4c3)ccn2)n(-c2ccc(F)c(C(F)(F)F)c2)c1=O [Example A105, 4-[4-(3-Fluoro-1H-pyrrolo[2,3-b]pyridin-5-yl)pyridin-2-yl]-3-(4-fluoro-3-trifluoro-methylphenyl)-1-methyl-1,3-dihydroimidazol-2-one]",
